In patent US20120178915A1, “PYRIMIDINE DERIVATIVES AND ANALOGS, PREPARATION METHOD AND USE THEREOF” (priority 2009, published 2012):
≈ marks a conversion by molar mass, not a printed value. Where two headings read alike, the source gives them in different places.

Key:
[1] = system: Streptococcus pneumoniae 6303 (PRSP); test: microbe, parasite or virus in culture; type: cell-based; settings: 24 h, read-out: Minimum Inhibitory Concentration, MIC
Gram-positive Bacteria = type: cell-based; settings: Enterococcus faecalis (VRE), Staphylococcus aureus (MRSA), Streptococcus pneumoniae 6303 (PRSP); Bacillus cereus, Bacillus subtilis, Enterococcus faecalis, Staphylococcus aureus, Streptococcus pneumoniae, Streptococcus agalactiae B and streptococci 4
[2] = system: Enterococcus faecalis 583 (VRE); test: microbe, parasite or virus in culture; type: cell-based; settings: 24 h, read-out: Minimum Inhibitory Concentration, MIC
MIC broth microdilution = type: cell-based; settings: Microorganism 33, Dermatophytosis; 37° C., 24 h; read-out: Minimum Inhibitory Concentration, MIC
[3] = system: Enterococcus faecalis 51299; test: microbe, parasite or virus in culture; type: cell-based; settings: Enterococcus faecalis, 51299, 24 h, read-out: Minimum Inhibitory Concentration, MIC
[4] = system: Staphylococcus aureus 704 (MRSA); test: microbe, parasite or virus in culture; type: cell-based; settings: 24 h, read-out: Minimum Inhibitory Concentration, MIC
Oral candidiasis = test: MIC broth microdilution; type: cell-based; settings: Microorganism 32, Oral candidiasis; 37° C., 24 h; read-out: Minimum Inhibitory Concentration, MIC
[5] = system: Enterococcus faecalis 19433; test: microbe, parasite or virus in culture; type: cell-based; settings: 37° C., 24 h, read-out: Minimum Inhibitory Concentration, MIC
Pyogenic Streptococcus = test: microbe, parasite or virus in culture; type: cell-based; settings: 37° C., 24 h, read-out: Minimum Inhibitory Concentration, MIC
[6] = system: Streptococcus pneumoniae 10351; test: microbe, parasite or virus in culture; type: cell-based; settings: 37° C., 24 h, read-out: Minimum Inhibitory Concentration, MIC
Streptococcus 10342 = test: MIC broth microdilution; type: cell-based; settings: 37° C., 24 h, read-out: Minimum Inhibitory Concentration, MIC
[7] = system: Staphylococcus aureus 705 (MRSA); test: microbe, parasite or virus in culture; type: cell-based; settings: 24 h, read-out: Minimum Inhibitory Concentration, MIC
[8] = system: Enterococcus fecal F631 (VRE); test: organism not typed; type: cell-based; settings: 24 h, read-out: Minimum Inhibitory Concentration, MIC
[9] = system: Corynebacterium diphtheriae; test: microbe, parasite or virus in culture; type: cell-based; settings: 37° C., 24 h, read-out: Minimum Inhibitory Concentration, MIC
[10] = system: Staphylococcus aureus 43300 (MRSA); test: microbe, parasite or virus in culture; type: cell-based; settings: 24 h, read-out: Minimum Inhibitory Concentration, MIC
Bacillus subtilis 168 = test: microbe, parasite or virus in culture; type: cell-based; settings: 37° C., 24 h, read-out: Minimum Inhibitory Concentration, MIC
[11] = system: Staphylococcus aureus 29231; test: microbe, parasite or virus in culture; type: cell-based; settings: 37° C., 24 h, read-out: Minimum Inhibitory Concentration, MIC
Bacillus cereus 246 = test: microbe, parasite or virus in culture; type: cell-based; settings: 37° C., 24 h, read-out: Minimum Inhibitory Concentration, MIC
[12] = system: Streptococcus pneumoniae 6301; test: microbe, parasite or virus in culture; type: cell-based; settings: 37° C., 24 h, read-out: Minimum Inhibitory Concentration, MIC
Bacillus cereus 2 = test: microbe, parasite or virus in culture; type: cell-based; settings: 37° C., 24 h, read-out: Minimum Inhibitory Concentration, MIC
[13] = system: Streptococcus pneumoniae M2; test: microbe, parasite or virus in culture; type: cell-based; settings: 37° C., 24 h, read-out: Minimum Inhibitory Concentration, MIC
MRSA 2152 = test: Antibacterial studies in vivo, survival of mice infected with MRSA 2152; settings: dose mg/kg: ciprofloxacin 20, 3: 30, 7: 40, 21: 50, 33: 25, 70: 70; for Survival rate (%) (life prolongation rate): (survival days of test group − blank group)/blank group ×100%, MRSA 2152 mice, tail vein; for Survival: mice inoculated intraperitoneally with MRSA 2152, test compound by tail vein, repeated after six hours, saline 1.3 days
Clostridium perfringens = test: microbe, parasite or virus in culture; type: cell-based; settings: 24 h, read-out: Minimum Inhibitory Concentration, MIC
Bacillus subtilis 82 = test: microbe, parasite or virus in culture; type: cell-based; settings: 37° C., 24 h, read-out: Minimum Inhibitory Concentration, MIC
Clostridium tetani = test: microbe, parasite or virus in culture; type: cell-based; settings: 24 h
green Streptococcus 1009 = test: microbe, parasite or virus in culture; type: cell-based; settings: 37° C., 24 h, read-out: Minimum Inhibitory Concentration, MIC
[14] = system: Enterococcus faecalis 1513 (VRE); test: microbe, parasite or virus in culture; type: cell-based; settings: 24 h, read-out: Minimum Inhibitory Concentration, MIC
[15] = system: Streptococcus agalactiae B; test: microbe, parasite or virus in culture; type: cell-based; settings: 37° C., 24 h, read-out: Minimum Inhibitory Concentration, MIC
[16] = system: Enterococcus faecalis 29212; test: microbe, parasite or virus in culture; type: cell-based; settings: 37° C., 24 h, read-out: Minimum Inhibitory Concentration, MIC
[17] = system: Streptococcus pneumoniae 62; test: microbe, parasite or virus in culture; type: cell-based; settings: 37° C., 24 h, read-out: Minimum Inhibitory Concentration, MIC
[18] = system: Enterococcus faecalis F2518 (VRE); test: microbe, parasite or virus in culture; type: cell-based; settings: 24 h, read-out: Minimum Inhibitory Concentration, MIC
[19] = system: Staphylococcus aureus 703 (MRSA); test: microbe, parasite or virus in culture; type: cell-based; settings: 24 h, read-out: Minimum Inhibitory Concentration, MIC
Bacillus anthracis 1 = test: microbe, parasite or virus in culture; type: cell-based; settings: Bacillus anthracis, 1, 24 h, read-out: Minimum Inhibitory Concentration, MIC
[20] = system: Streptococcus bovis 10035; test: microbe, parasite or virus in culture; type: cell-based; settings: Streptococcus equinus, 37° C., 24 h, read-out: Minimum Inhibitory Concentration, MIC
[21] = read-out: Minimum Inhibitory Concentration, MIC, Microorganism 29, Clostridium tetani, 37° C.
[22] = read-out: Minimum Inhibitory Concentration, MIC, Microorganism 30, Clostridium tetani (second line of that name), 37° C.

Cc1nn2c(=O)cc(-c3ccc(C#N)cc3)[nH]c2c1-c1ccc(C(F)(F)F)cc1 [Compound 3]
MIC [1]: 0.32 µM (≈ 0.126 µg/mL) | inhibition of growth (conclusion from MICs) (Gram-positive Bacteria): significantly inhibited the growth | MIC [2]: 0.63 µM (≈ 0.248 µg/mL) | MIC (MIC broth microdilution): 59.1 µM (≈ 23.3 µg/mL) | MIC [3]: 0.55 µM (≈ 0.217 µg/mL) | MIC [4]: 0.63 µM (≈ 0.248 µg/mL) | MIC (Oral candidiasis): 53.1 µM (≈ 20.9 µg/mL) | MIC [5]: 0.42 µM (≈ 0.166 µg/mL) | MIC (Pyogenic Streptococcus): 0.12 µM (≈ 0.0473 µg/mL) | MIC [6]: 1.25 µM (≈ 0.493 µg/mL) | MIC (Streptococcus 10342): 1.33 µM (≈ 0.524 µg/mL) | MIC [7]: 0.46 µM (≈ 0.181 µg/mL) | MIC [8]: 0.33 µM (≈ 0.13 µg/mL) | MIC [9]: 62.1 µM (≈ 24.5 µg/mL) | MIC [10]: 0.36 µM (≈ 0.142 µg/mL) | MIC (Bacillus subtilis 168): 2.5 µM (≈ 0.986 µg/mL) | MIC [11]: 0.22 µM (≈ 0.0868 µg/mL) | MIC (Bacillus cereus 246): 0.53 µM (≈ 0.209 µg/mL) | MIC [12]: 0.3 µM (≈ 0.118 µg/mL) | MIC (Bacillus cereus 2): 2.5 µM (≈ 0.986 µg/mL) | MIC [13]: 0.04 µM (≈ 0.0158 µg/mL) | Survival rate (%) (life prolongation rate) (MRSA 2152): 216.8% | Survival (MRSA 2152): 4.3 days | MIC (Clostridium perfringens): 55.3 µM (≈ 21.8 µg/mL) | MIC (Bacillus subtilis 82): 5 µM (≈ 1.97 µg/mL) | MIC (Clostridium tetani; [21]): 50.3 µM (≈ 19.8 µg/mL) | MIC (Clostridium tetani; [22]): 23.2 µM (≈ 9.15 µg/mL) | MIC (green Streptococcus 1009): 0.31 µM (≈ 0.122 µg/mL) | MIC [14]: 1.3 µM (≈ 0.513 µg/mL) | MIC [15]: 0.16 µM (≈ 0.0631 µg/mL) | MIC [16]: 0.23 µM (≈ 0.0907 µg/mL) | MIC [17]: 10.5 µM (≈ 4.14 µg/mL) | MIC [18]: 0.48 µM (≈ 0.189 µg/mL) | MIC [19]: 1.25 µM (≈ 0.493 µg/mL) | MIC (Bacillus anthracis 1): 25.6 µM (≈ 10.1 µg/mL) | MIC [20]: 2.01 µM (≈ 0.793 µg/mL)

Cc1c(-c2ccc(C#N)cc2)[nH]c2c(-c3ccc(Cl)cc3Cl)c(-c3ccccc3)nn2c1=O [Compound 70]
MIC [1]: 0.04 µM (≈ 0.0189 µg/mL) | inhibition of growth (conclusion from MICs) (Gram-positive Bacteria): significantly inhibited the growth | MIC [2]: 1.25 µM (≈ 0.589 µg/mL) | MIC (MIC broth microdilution): 125 µM (≈ 59.1 µg/mL) | MIC [3]: 2.5 µM (≈ 1.18 µg/mL) | MIC [4]: 0.35 µM (≈ 0.165 µg/mL) | MIC (Oral candidiasis): 120 µM (≈ 56.8 µg/mL) | MIC [5]: 0.23 µM (≈ 0.108 µg/mL) | MIC (Pyogenic Streptococcus): 1.33 µM (≈ 0.627 µg/mL) | MIC [6]: 0.55 µM (≈ 0.259 µg/mL) | MIC (Streptococcus 10342): 1.23 µM (≈ 0.58 µg/mL) | MIC [7]: 0.55 µM (≈ 0.259 µg/mL) | MIC [8]: 0.55 µM (≈ 0.259 µg/mL) | MIC [9]: 45.2 µM (≈ 21.3 µg/mL) | MIC [10]: 0.56 µM (≈ 0.264 µg/mL) | MIC (Bacillus subtilis 168): 1.25 µM (≈ 0.589 µg/mL) | MIC [11]: 0.55 µM (≈ 0.259 µg/mL) | MIC (Bacillus cereus 246): 1.32 µM (≈ 0.622 µg/mL) | MIC [12]: 0.2 µM (≈ 0.0943 µg/mL) | MIC (Bacillus cereus 2): 0.31 µM (≈ 0.146 µg/mL) | MIC [13]: 0.63 µM (≈ 0.297 µg/mL) | Survival rate (%) (life prolongation rate) (MRSA 2152): 253.8% | Survival (MRSA 2152): 4.6 days | MIC (Clostridium perfringens): 30.6 µM (≈ 14.4 µg/mL) | MIC (Bacillus subtilis 82): 1.25 µM (≈ 0.589 µg/mL) | MIC (Clostridium tetani; [21]): 80.2 µM (≈ 37.8 µg/mL) | MIC (Clostridium tetani; [22]): 50.2 µM (≈ 23.7 µg/mL) | MIC (green Streptococcus 1009): 0.23 µM (≈ 0.108 µg/mL) | MIC [14]: 2.5 µM (≈ 1.18 µg/mL) | MIC [15]: 0.25 µM (≈ 0.118 µg/mL) | MIC [16]: 2.5 µM (≈ 1.18 µg/mL) | MIC [17]: 10.5 µM (≈ 4.95 µg/mL) | MIC [18]: 0.55 µM (≈ 0.259 µg/mL) | MIC [19]: 1.25 µM (≈ 0.589 µg/mL) | MIC (Bacillus anthracis 1): 12.5 µM (≈ 5.89 µg/mL) | MIC [20]: 0.02 µM (≈ 0.00943 µg/mL)
